Test system: IL-6 production induced by lipopolysaccharide (LPS) in human corneal epithelial cells
Assay: Evaluation test for GR agonist activity: inhibition of LPS-induced IL-6 production in human corneal epithelial cells (HCE-T)
Assay type: cell-based
Settings: Corneal epithelial cell, 10 μL of 100 μM test compound solution per well, 4 hours incubation, efficacy relative to DEX
Description: In order to evaluate a GR agonist activity of the present compound, the inhibitory effects on the IL-6 production induced by lipopolysaccharide (LPS) in human corneal epithelial cells. IL-6 levels in the conditioned medium were measured using the HTRF human IL-6 Kit (boehringer-Ingelheim, Cat No. 62IL6PEB), and the procedure was carried out according to the protocol attached to the kit. Hereinafter, the specific method will be described.
LPS solution: After LPS was dissolved in phosphate buffer solution (hereinafter referred to as PBS(−)), the resulting solution was diluted with 10% FBS-DMEM/F12 medium, whereby a 1 μg/mL LPS solution was prepared.
After a test compound was dissolved in dimethylsulfoxide (hereinafter referred to as DMSO), the resulting solution was diluted with 10% FBS-DMEM/F12 medium, whereby a 100 μM test compound solution was prepared. A 100 μM DEX solution was prepared by the same method, and the inhibitory ratio of IL-6 production of DEX was evaluated to use for calculating efficacy (% DEX).
Used cell: SV40-immortalized human corneal epithelial cells (HCE-T) (RIKEN)
1) HCE-T cells were harvested, and seeded at 2.0×10^4 cells/0.1 mL/well in a 96-well plate.
2) After incubation overnight, the medium was removed and a 80 μL of new 10% FBS-DMEM/Ham's F12 medium was added into each well.
3) A 10 μL of test compounds solution was added into each well.
4) A 10 μL of LPS solution was added into each well.
5) As a negative control, a 10 μL of 10% FBS-DMEM/Ham's F12 medium was added into each well instead of a test compound solution and a LPS solution.
6) As a positive control, a 10 μL of 10% FBS-DMEM/Ham's F12 medium containing 1% DMSO was added into each well instead of a test compound solution.
7) After 4 hours incubation, supernatants were collected and IL-6 levels in the supernatants were quantitated using the HTRF human IL-6 Kit.
8) The inhibition ratio of IL-6 production (%) was calculated according to the following equation.
The inhibition ratio of IL-6 production (%) was calculated according to the following equation. The inhibition ratio of IL-6 production(%)=100×[1−(IL-6 level in each group−mean value of IL-6 level in negative control)/(mean value of IL-6 level in positive control−mean value of IL-6 level in negative control)](%)
Furthermore, the inhibition ratio of IL-6 production (efficacy (% DEX)) was also calculated according to the following equation. Efficacy(% DEX)=100×{(mean value of IL-6 inhibition in compound-treated group)/(mean value of IL-6 inhibition in DEX-treated group)}(%) (Result and Discussion)

SMILES: COc1cc(OC(=O)c2ccccc2Cl)ccc1-c1ccc2c(c1CNc1cc(F)ccc1C)C(C)=CC(C)(C)N2 [Compound 1-98, 6-[4-(2-Chlorobenzoyloxy)-2-methoxyphenyl]-5-(5-fluoro-2-methylphenylaminomethyl)-2,2,4-trimethyl-1,2-dihydroquinoline]
- Emax: 78%

SMILES: COc1cc(OC(=O)N(C)C)ccc1-c1ccc2c(c1COc1cc([N+](=O)[O-])ccc1C)C(C)=CC(C)(C)N2 [Compound 6-33, 6-(4-Dimethylaminocarbonyloxy-2-methoxyphenyl)-5-(2-methyl-5-nitrophenoxymethyl)-2,2,4-trimethyl-1,2-dihydroquinoline]
- Emax: 78%

SMILES: COc1cc(OC(=O)c2cccnc2)ccc1-c1ccc2c(c1COC(=O)c1ccc(C)cc1)C(C)=CC(C)(C)N2 [Compound 1-133, 5-(4-Methylbenzoyloxymethyl)-6-[2-methoxy-4-(pyridin-3-ylcarbonyloxy)phenyl]-2,2,4-trimethyl-1,2-dihydroquinoline]
- Emax: 74%

SMILES: COc1cc(OC(=O)c2ccccc2F)ccc1-c1ccc2c(c1COC(=O)c1ccc(C)s1)C(C)=CC(C)(C)N2 [Compound 1-144, 6-[4-(2-Fluorobenzoyloxy)-2-methoxyphenyl]-5-(5-methylthiophen-2-ylcarbonyloxymethyl)-2,2,4-trimethyl-1,2-dihydroquinoline]
- Emax: 94%

SMILES: COC(=O)c1cccc(C(=O)Oc2ccc(-c3ccc4c(c3CNc3ccccc3OC)C(C)=CC(C)(C)N4)c(OC)c2)c1 [Compound 1-107, 6-[2-Methoxy-4-(3-methoxycarbonylbenzoyloxy)phenyl]-5-(2-methoxyphenylaminomethyl)-2,2,4-trimethyl-l,2-dihydroquinoline]
- Emax: 85%

SMILES: COc1ccccc1C(=O)Oc1ccc(-c2ccc3c(c2COc2cc(F)ccc2C)C(C)=CC(C)(C)N3)c(OC)c1 [Compound 1-6, 5-(5-Fluoro-2-methylphenoxymethyl)-6-[2-methoxy-4-(2-methoxybenzoyloxy)phenyl]-2,2,4-trimethyl-1,2-dihydroquinoline]
- Emax: 93%

SMILES: CCS(=O)(=O)Oc1ccc(-c2ccc3c(c2COC(=O)c2ccc(C)s2)C(C)=CC(C)(C)N3)c(OC)c1 [Compound 4-32, 6-(4-Ethylsulfonyloxy-2-methoxyphenyl)-5-(5-methylthiophen-2-ylcarbonyloxymethyl)-2,2,4-trimethyl-1,2-dihydroquinoline]
- Emax: 77%

SMILES: COc1cc(OC(=O)c2ccsc2)ccc1-c1ccc2c(c1COC(=O)c1ccc(C)s1)C(C)=CC(C)(C)N2 [Compound 1-147, 6-[2-Methoxy-4-(thiophen-3-ylcarbonyloxy)phenyl]-5-(5-methylthiophen-2-ylcarbonyloxymethyl)-2,2,4-trimethyl-1,2-dihydroquinoline]
- Emax: 80%

SMILES: COc1cc(OC(=O)c2ccc(C)nc2)ccc1-c1ccc2c(c1COC(=O)c1ccc(C)s1)C(C)=CC(C)(C)N2 [Compound 1-128, 6-[2-Methoxy-4-(6-methylpyridin-3-ylcarbonyloxy)phenyl]-5-(5-methylthiophen-2-ylcarbonyloxymethyl)-2,2,4-trimethyl-1,2-dihydroquinoline]
- Emax: 79%

SMILES: COc1ccc(C(=O)OCc2c(-c3ccc(OC(=O)c4cccnc4)cc3OC)ccc3c2C(C)=CC(C)(C)N3)cc1 [Compound 1-157, 5-(4-Methoxybenzoyloxymethyl)-6-[2-methoxy-4-(pyridin-3-ylcarbonyloxy)phenyl]-2,2,4-trimethyl-1,2-dihydroquinoline]
- Emax: 76%

SMILES: COc1cc(OC(=O)c2ccco2)ccc1-c1ccc2c(c1CNc1cc(F)ccc1C)C(C)=CC(C)(C)N2 [Compound 1-106, 5-(5-Fluoro-2-methylphenylaminomethyl)-6-[4-(furan-2-ylcarbonyloxy)-2-methoxyphenyl]-2,2,4-trimethyl-1,2-dihydroquinoline]
- Emax: 82%

SMILES: COc1cc(OC(=O)N2CCOCC2)ccc1-c1ccc2c(c1COC(=O)c1ccc(C)s1)C(C)=CC(C)(C)N2 [Compound 6-26, 6-[2-Methoxy-4-(morpholin-4-ylcarbonyloxy)phenyl]-5-(5-methylthiophen-2-ylcarbonyloxymethyl)-2,2,4-trimethyl-1,2-dihydroquinoline]
- Emax: 84%

SMILES: COc1cc(OC(=O)c2ccccc2OC(C)=O)ccc1-c1ccc2c(c1COc1cc(F)ccc1C)C(C)=CC(C)(C)N2 [Compound 1-36, 6-[4-(2-Acetoxybenzoyloxy)-2-methoxyphenyl]-5-(5-fluoro-2-methylphenoxymethyl)-2,2,4-trimethyl-1,2-dihydroquinoline]
- Emax: 75%

SMILES: COc1cc(OC(=O)c2ccc(C)o2)ccc1-c1ccc2c(c1COc1cc(F)ccc1C)C(C)=CC(C)(C)N2 [Compound 1-48, 5-(5-Fluoro-2-methylphenoxymethyl)-6-[2-methoxy-4-(5-methylfuran-2-ylcarbonyloxy)phenyl]-2,2,4-trimethyl-1,2-dihydroquinoline]
- Emax: 73%

SMILES: COc1cc(OC(=O)c2ccnc(Cl)c2)ccc1-c1ccc2c(c1COc1cc(F)ccc1C)C(C)=CC(C)(C)N2 [Compound 1-68, 6-[4-(2-Chloropyridin-4-ylcarbonyloxy)-2-methoxyphenyl]-5-(5-fluoro-2-methylphenoxymethyl)-2,2,4-trimethyl-1,2-dihydroquinoline]
- Emax: 72%

SMILES: COc1cc(OS(=O)(=O)C2CC2)ccc1-c1ccc2c(c1COC(=O)c1ccc(C)s1)C(C)=CC(C)(C)N2 [Compound 4-34, 6-(4-Cyclopropylsulfonyloxy-2-methoxyphenyl)-5-(5-methylthiophen-2-ylcarbonyloxymethyl)-2,2,4-trimethyl-1,2-dihydroquinoline]
- Emax: 86%

SMILES: COc1cc(OC(=O)c2ccccc2OC(C)=O)ccc1-c1ccc2c(c1COC(=O)c1ccc(C)s1)C(C)=CC(C)(C)N2 [Compound 1-165, 6-[4-(2-Acetoxybenzoyloxy)-2-methoxyphenyl]-5-(5-methylthiophen-2-ylcarbonyloxymethyl)-2,2,4-trimethyl-1,2-dihydroquinoline]
- Emax: 93%

SMILES: COc1cc(OC(=O)c2cccnc2OC)ccc1-c1ccc2c(c1CNc1cc(F)ccc1C)C(C)=CC(C)(C)N2 [Compound 1-125, 5-(5-Fluoro-2-methylphenylaminomethyl)-6-[2-methoxy-4-(2-methoxypyridin-3-ylcarbonyloxy)phenyl]-2,2,4-trimethyl-1,2-dihydroquinoline]
- Emax: 81%

SMILES: CCS(=O)(=O)Oc1ccc(-c2ccc3c(c2COc2cc(F)ccc2C)C(C)=CC(C)(C)N3)c(OC)c1 [Compound 4-4, 6-(4-Ethylsulfonyloxy-2-methoxyphenyl)-5-(5-fluoro-2-methylphenoxymethyl)-2,2,4-trimethyl-1,2-dihydroquinoline]
- Emax: 89%

SMILES: CCCS(=O)(=O)Oc1ccc(-c2ccc3c(c2CNc2cc(F)ccc2C)C(C)=CC(C)(C)N3)c(OC)c1 [Compound 4-21, 5-(5-Fluoro-2-methylphenylaminomethyl)-6-(2-methoxy-4-propylsulfonyloxyphenyl)-2,2,4-trimethyl-1,2-dihydroquinoline]
- Emax: 82%

SMILES: COc1ccccc1NCc1c(-c2ccc(OC(=O)c3ccccc3SC)cc2OC)ccc2c1C(C)=CC(C)(C)N2 [Compound 1-111]
- Emax: 81%

SMILES: COc1ccccc1NCc1c(-c2ccc(OC(=O)c3ccccc3Cl)cc2OC)ccc2c1C(C)=CC(C)(C)N2 [Compound 1-99, 6-[4-(2-Chlorobenzoyloxy)-2-methoxyphenyl]-5-(2-methoxyphenylaminomethyl)-2,2,4-trimethyl-1,2-dihydroquinoline]
- Emax: 89%

SMILES: COc1ccccc1NCc1c(-c2ccc(OC(=O)c3ccccc3F)cc2OC)ccc2c1C(C)=CC(C)(C)N2 [Compound 1-101, 6-[4-(2-Fluorobenzoyloxy)-2-methoxyphenyl]-5-(2-methoxyphenylaminomethyl)-2,2,4-trimethyl-1,2-dihydroquinoline]
- Emax: 81%

SMILES: COc1cc(OC(=O)c2occc2C)ccc1-c1ccc2c(c1COC(=O)c1ccc(C)s1)C(C)=CC(C)(C)N2 [Compound 1-171, 6-[2-Methoxy-4-(3-methylfuran-2-ylcarbonyloxy)phenyl]-5-(5-methylthiophen-2-ylcarbonyloxymethyl)-2,2,4-trimethyl-1,2-dihydroquinoline]
- Emax: 87%

SMILES: COc1ccccc1NCc1c(-c2ccc(OC(=O)c3ccoc3)cc2OC)ccc2c1C(C)=CC(C)(C)N2 [Compound 1-95, 6-[4-(Furan-3-ylcarbonyloxy)-2-methoxyphenyl]-5-(2-methoxyphenylaminomethyl)-2,2,4-trimethyl-1,2-dihydroquinoline]
- Emax: 87%

SMILES: COc1cc(OC(=O)c2ccccc2SC)ccc1-c1ccc2c(c1COC(=O)c1ccc(C)s1)C(C)=CC(C)(C)N2 [Compound 1-151]
- Emax: 90%

From US8426406B2, “Glucocorticoid receptor agonist comprising 2,2,4-trimethyl-6-phenyl-1,2-dihydroquinoline derivatives having substituted oxy group” (Santen Pharmaceutical Co., Ltd., priority 2008, dated 2013)
